# Data as given in patent US20230074545A1, “TREATMENT OF CANCER WITH CDK12/13 INHIBITORS” (Kinnate Biopharma Inc., priority 2019, published 2023).
# Columns and labels:
# Assay in all cases: Radiometric kinase panel
# Type in all cases: biochemical
# [1] = target: T1, PKMYT1 (Homo sapiens, UniProt Q99640)
# T1 construct: either as full-length or enzymatically active fragments; purchased ProQinase GmbH (Reaction Biology)
# In short: (§1)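 Activity was measured radiometrically from [gamma-33P]-ATP incorporation into substrate. The kinases were recombinant human GST- or His-tagged proteins, full-length or active fragments, expressed in Sf9 or E. coli. Compound in 10% DMSO was added before the enzyme/substrate mix, which started the reaction.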
# [2] = target: T2, VEGFR2 (Homo sapiens, UniProt P35968)
# T2 construct: either as full-length or enzymatically active fragments; purchased ProQinase GmbH (Reaction Biology); host or cells: Sf9 insect cells or E. coli
# In short: as §1
# [3] = target: T3, CK1alpha1 (Homo sapiens, UniProt P48729)
# T3 construct: either as full-length or enzymatically active fragments; purchased ProQinase GmbH (Reaction Biology); host or cells: Sf9 insect cells or E. coli
# In short: as §1
# [4] = target: T4, IKKbeta (Homo sapiens, UniProt O14920)
# T4 construct: purchased ProQinase GmbH (Reaction Biology); host or cells: Sf9 insect cells or E. coli (not specified per kinase)
# T4 sequence (O14920 whole entry): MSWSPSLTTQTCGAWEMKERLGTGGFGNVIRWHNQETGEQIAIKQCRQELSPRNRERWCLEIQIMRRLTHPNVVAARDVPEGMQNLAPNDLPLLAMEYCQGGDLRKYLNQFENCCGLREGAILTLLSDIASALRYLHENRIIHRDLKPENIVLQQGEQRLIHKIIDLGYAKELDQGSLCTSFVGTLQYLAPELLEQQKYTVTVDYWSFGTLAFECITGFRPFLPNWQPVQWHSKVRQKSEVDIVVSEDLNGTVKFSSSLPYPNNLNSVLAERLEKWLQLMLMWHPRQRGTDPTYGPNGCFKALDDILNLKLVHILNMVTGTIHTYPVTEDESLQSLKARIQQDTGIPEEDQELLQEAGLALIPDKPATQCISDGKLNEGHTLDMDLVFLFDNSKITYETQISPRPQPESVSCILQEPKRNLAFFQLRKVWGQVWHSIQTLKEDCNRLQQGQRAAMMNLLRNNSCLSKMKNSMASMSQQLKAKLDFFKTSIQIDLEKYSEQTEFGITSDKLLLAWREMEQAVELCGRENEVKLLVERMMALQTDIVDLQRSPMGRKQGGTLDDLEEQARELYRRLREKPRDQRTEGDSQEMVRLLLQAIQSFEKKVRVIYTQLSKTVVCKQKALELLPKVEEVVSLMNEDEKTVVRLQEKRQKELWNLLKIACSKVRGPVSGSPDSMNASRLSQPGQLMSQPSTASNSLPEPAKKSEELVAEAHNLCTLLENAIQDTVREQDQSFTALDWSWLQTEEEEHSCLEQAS
# In short: as §1
# [5] = target: T5, DYRK4 (Homo sapiens, UniProt Q9NR20)
# T5 construct: either as full-length or enzymatically active fragments; purchased ProQinase GmbH (Reaction Biology)
# In short: as §1
# [6] = target: T6, TGFBR1 (Homo sapiens, UniProt P36897)
# T6 construct: either as full-length or enzymatically active fragments; purchased ProQinase GmbH (Reaction Biology)
# In short: as §1
# [7] = target: T7, FAK (Homo sapiens, UniProt Q05397)
# T7 construct: either as full-length or enzymatically active fragments; purchased ProQinase GmbH (Reaction Biology); host or cells: Sf9 insect cells or E. coli
# In short: as §1
# [8] = target: T8, CDK5/p35NCK (Homo sapiens, UniProt Q00535)
# T8 construct: either as full-length or enzymatically active fragments; purchased ProQinase GmbH (Reaction Biology)
# In short: as §1
# [9] = target: T9, PAK3 (Homo sapiens, UniProt O75914)
# T9 construct: purchased ProQinase GmbH (Reaction Biology); host or cells: Sf9 insect cells or E. coli (not specified per kinase)
# In short: as §1
# [10] = target: T10, ACVR2B (Homo sapiens, UniProt Q13705)
# T10 construct: either as full-length or enzymatically active fragments; purchased ProQinase GmbH (Reaction Biology)
# In short: as §1
# [11] = target: T11, NEK11 (Homo sapiens, UniProt Q8NG66)
# T11 construct: either as full-length or enzymatically active fragments; purchased ProQinase GmbH (Reaction Biology)
# In short: as §1
# [12] = target: T12, PKCepsilon (Homo sapiens, UniProt Q02156)
# T12 construct: either as full-length or enzymatically active fragments; purchased ProQinase GmbH (Reaction Biology); host or cells: Sf9 insect cells or E. coli
# In short: as §1
# [13] = target: T13, LIMK2 (Homo sapiens, UniProt P53671)
# T13 construct: either as full-length or enzymatically active fragments; purchased ProQinase GmbH (Reaction Biology)
# T13 sequence (P53671 whole entry, the tested form may be a part): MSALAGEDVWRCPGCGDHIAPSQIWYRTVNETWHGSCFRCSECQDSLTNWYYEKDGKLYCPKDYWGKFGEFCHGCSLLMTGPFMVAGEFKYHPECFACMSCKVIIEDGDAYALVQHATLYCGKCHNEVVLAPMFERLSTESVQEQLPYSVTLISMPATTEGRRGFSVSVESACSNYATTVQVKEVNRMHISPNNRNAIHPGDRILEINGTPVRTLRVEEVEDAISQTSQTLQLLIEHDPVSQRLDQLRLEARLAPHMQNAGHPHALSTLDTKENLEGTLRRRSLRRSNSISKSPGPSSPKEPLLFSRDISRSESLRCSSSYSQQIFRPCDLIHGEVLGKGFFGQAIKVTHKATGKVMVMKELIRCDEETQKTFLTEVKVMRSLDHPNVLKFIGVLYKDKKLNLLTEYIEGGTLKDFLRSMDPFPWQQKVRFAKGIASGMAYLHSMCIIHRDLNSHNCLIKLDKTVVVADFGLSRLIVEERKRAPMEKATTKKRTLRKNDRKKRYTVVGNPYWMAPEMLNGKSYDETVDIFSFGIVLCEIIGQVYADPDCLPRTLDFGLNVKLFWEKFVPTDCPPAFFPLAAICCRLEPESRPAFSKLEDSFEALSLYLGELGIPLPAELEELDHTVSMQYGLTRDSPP
# In short: as §1
# [14] = target: T14, CAMK2D (Homo sapiens, UniProt Q13557)
# T14 construct: purchased ProQinase GmbH (Reaction Biology)
# In short: as §1
# [15] = target: T15, GRK6 (Homo sapiens, UniProt P43250)
# T15 construct: purchased ProQinase GmbH (Reaction Biology)
# T15 sequence (P43250 whole entry): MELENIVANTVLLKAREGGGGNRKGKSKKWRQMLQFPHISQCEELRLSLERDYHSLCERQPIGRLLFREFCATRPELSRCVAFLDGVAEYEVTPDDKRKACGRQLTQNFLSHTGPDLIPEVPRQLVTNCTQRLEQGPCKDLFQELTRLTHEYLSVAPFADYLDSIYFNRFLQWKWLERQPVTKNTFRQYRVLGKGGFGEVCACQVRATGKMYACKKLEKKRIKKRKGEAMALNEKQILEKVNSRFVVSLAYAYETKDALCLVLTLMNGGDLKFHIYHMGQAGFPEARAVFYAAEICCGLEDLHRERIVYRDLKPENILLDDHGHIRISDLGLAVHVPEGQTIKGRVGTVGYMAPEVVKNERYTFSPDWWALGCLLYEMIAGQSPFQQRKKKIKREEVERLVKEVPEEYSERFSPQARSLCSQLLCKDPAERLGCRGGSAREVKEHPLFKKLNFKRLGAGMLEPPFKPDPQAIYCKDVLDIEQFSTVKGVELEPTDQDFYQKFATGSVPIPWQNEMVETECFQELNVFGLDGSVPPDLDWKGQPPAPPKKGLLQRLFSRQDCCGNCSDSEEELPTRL
# In short: as §1
# [16] = target: T16, NLK (Homo sapiens, UniProt Q9UBE8)
# T16 construct: either as full-length or enzymatically active fragments; purchased ProQinase GmbH (Reaction Biology)
# In short: as §1
# [17] = target: T17, CHK1 (Homo sapiens, UniProt O14757)
# T17 construct: either as full-length or enzymatically active fragments; purchased ProQinase GmbH (Reaction Biology)
# In short: as §1
# [18] = target: T18, MAP3K1 (Homo sapiens, UniProt Q13233)
# T18 construct: either as full-length or enzymatically active fragments; purchased ProQinase GmbH (Reaction Biology); host or cells: Sf9 insect cells or E. coli (not specified per kinase)
# T18 sequence (Q13233 whole entry, the tested form may be a part): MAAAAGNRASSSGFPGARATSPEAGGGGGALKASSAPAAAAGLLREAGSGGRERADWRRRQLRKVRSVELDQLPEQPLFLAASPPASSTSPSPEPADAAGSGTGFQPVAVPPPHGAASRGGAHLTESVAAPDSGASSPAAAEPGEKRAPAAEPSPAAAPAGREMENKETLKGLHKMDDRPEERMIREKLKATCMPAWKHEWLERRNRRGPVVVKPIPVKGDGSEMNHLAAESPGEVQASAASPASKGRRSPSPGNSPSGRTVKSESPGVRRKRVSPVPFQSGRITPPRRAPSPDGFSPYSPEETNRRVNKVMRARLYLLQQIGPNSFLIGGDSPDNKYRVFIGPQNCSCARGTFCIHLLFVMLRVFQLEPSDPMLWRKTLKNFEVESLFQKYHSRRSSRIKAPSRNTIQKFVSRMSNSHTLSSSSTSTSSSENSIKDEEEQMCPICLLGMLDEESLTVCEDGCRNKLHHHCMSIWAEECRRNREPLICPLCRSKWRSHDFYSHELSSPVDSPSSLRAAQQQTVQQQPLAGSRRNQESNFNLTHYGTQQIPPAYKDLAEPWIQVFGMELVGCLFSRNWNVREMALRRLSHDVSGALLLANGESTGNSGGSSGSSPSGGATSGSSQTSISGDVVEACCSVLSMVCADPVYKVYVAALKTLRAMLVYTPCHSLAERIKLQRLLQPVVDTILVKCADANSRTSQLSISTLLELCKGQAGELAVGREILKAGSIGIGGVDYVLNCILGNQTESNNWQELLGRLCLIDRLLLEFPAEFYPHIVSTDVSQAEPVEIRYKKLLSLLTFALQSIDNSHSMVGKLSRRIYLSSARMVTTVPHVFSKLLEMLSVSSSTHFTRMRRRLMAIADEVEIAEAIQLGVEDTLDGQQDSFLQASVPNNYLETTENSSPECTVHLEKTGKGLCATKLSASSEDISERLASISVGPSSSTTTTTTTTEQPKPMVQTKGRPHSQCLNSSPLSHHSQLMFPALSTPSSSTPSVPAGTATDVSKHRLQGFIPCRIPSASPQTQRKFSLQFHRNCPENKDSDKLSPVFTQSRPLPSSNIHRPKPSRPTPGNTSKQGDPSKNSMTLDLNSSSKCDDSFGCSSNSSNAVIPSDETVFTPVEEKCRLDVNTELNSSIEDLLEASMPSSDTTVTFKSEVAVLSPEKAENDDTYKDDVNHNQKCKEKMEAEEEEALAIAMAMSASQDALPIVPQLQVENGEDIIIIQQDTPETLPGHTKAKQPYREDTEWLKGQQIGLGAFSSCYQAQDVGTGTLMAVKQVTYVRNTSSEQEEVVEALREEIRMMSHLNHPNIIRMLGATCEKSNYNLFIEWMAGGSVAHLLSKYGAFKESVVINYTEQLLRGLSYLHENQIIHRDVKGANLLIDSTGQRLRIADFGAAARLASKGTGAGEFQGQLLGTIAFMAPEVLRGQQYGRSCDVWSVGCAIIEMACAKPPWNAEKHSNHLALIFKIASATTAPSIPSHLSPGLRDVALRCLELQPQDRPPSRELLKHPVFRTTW
# In short: as §1
# [19] = target: T19, MYLK (Homo sapiens, UniProt Q15746)
# T19 construct: either as full-length or enzymatically active fragments; purchased ProQinase GmbH (Reaction Biology)
# In short: as §1
# [20] = target: T20, FRK (Homo sapiens, UniProt P42685)
# T20 construct: either as full-length or enzymatically active fragments; purchased ProQinase GmbH (Reaction Biology)
# In short: as §1
# [21] = target: T21, CDK1/CycA2 (Homo sapiens, UniProt P06493)
# T21 construct: either as full-length or enzymatically active fragments; purchased ProQinase GmbH (Reaction Biology)
# In short: as §1
# [22] = target: T22, MAPKAPK5 (Homo sapiens, UniProt Q8IW41)
# T22 construct: purchased ProQinase GmbH (Reaction Biology)
# In short: as §1
# [23] = target: T23, S6K (Homo sapiens, UniProt P23443)
# T23 construct: either as full-length or enzymatically active fragments; purchased ProQinase GmbH (Reaction Biology); host or cells: Sf9 insect cells or E. coli (not specified per kinase)
# T23 sequence (P23443 whole entry, the tested form may be a part): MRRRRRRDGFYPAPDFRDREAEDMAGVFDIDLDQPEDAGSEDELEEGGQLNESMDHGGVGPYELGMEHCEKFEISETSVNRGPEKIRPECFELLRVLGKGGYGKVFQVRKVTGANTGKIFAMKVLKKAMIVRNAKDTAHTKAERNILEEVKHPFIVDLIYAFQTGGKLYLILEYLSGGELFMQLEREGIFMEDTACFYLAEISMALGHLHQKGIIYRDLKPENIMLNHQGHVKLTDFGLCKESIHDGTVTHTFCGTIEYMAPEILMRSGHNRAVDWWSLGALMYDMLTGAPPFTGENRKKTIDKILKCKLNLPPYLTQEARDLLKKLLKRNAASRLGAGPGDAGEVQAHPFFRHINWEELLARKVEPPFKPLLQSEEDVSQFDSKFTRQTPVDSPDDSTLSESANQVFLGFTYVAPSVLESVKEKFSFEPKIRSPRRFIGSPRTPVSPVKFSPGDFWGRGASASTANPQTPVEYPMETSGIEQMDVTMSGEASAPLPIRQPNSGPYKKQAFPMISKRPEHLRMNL
# In short: as §1
# [24] = target: T24, ASK1 (Homo sapiens, UniProt Q99683)
# T24 construct: either as full-length or enzymatically active fragments; purchased ProQinase GmbH (Reaction Biology)
# In short: as §1
# [25] = target: T25, MKK7 (Homo sapiens, UniProt O14733)
# T25 construct: either as full-length or enzymatically active fragments; purchased ProQinase GmbH (Reaction Biology); host or cells: Sf9 insect cells or E. coli (not specified per kinase)
# In short: as §1
# [26] = target: T26, TTBK2 (Homo sapiens, UniProt Q6IQ55)
# T26 construct: either as full-length or enzymatically active fragments; purchased ProQinase GmbH (Reaction Biology)
# In short: as §1
# [27] = target: T27, GRK2 (Homo sapiens, UniProt P25098)
# T27 construct: either as full-length or enzymatically active fragments; purchased ProQinase GmbH (Reaction Biology)
# In short: as §1
# [28] = target: T28, NEK9 (Homo sapiens, UniProt Q8TD19)
# T28 construct: either as full-length or enzymatically active fragments; purchased ProQinase GmbH (Reaction Biology)
# T28 sequence (Q8TD19 whole entry, the tested form may be a part): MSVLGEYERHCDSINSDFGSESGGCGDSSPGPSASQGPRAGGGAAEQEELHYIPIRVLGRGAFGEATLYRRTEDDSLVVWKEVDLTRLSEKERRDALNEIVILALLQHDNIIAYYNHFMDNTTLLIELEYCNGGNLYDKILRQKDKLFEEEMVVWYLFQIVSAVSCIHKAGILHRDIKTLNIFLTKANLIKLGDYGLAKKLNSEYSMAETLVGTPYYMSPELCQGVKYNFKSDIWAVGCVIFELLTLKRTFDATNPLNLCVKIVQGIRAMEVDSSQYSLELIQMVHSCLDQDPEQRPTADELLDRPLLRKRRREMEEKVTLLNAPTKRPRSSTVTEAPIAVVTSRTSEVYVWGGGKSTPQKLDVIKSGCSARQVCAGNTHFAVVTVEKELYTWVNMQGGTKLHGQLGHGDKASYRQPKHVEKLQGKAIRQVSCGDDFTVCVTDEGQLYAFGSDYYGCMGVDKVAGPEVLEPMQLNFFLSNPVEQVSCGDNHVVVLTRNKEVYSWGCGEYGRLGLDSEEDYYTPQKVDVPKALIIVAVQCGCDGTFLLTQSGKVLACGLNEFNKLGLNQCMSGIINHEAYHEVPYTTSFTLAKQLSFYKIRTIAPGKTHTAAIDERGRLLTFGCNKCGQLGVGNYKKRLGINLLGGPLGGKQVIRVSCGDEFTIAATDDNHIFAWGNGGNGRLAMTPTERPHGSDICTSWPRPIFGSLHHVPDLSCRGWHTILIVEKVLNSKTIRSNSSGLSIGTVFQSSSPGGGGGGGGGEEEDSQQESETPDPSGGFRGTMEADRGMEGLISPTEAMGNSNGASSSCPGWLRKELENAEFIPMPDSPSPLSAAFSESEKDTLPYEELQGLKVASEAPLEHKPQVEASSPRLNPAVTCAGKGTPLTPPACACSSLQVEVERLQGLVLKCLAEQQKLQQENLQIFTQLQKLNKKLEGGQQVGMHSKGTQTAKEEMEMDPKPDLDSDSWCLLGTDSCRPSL
# In short: as §1
# [29] = target: T29, SIK3 (Homo sapiens, UniProt Q9Y2K2)
# T29 construct: either as full-length or enzymatically active fragments; purchased ProQinase GmbH (Reaction Biology)
# In short: as §1
# [30] = target: T30, TTBK1 (Homo sapiens, UniProt Q5TCY1)
# T30 construct: either as full-length or enzymatically active fragments; purchased ProQinase GmbH (Reaction Biology)
# In short: as §1
# [31] = target: T31, ACK1 (Homo sapiens, UniProt Q07912)
# T31 construct: either as full-length or enzymatically active fragments; purchased ProQinase GmbH (Reaction Biology)
# In short: as §1
smiles,measurement,setting,value
"C=CC(=O)Nc1ccc(C(=O)N2CC[C@@H](Nc3ncc(C#N)cn3)C2)cc1 [Compound 4, (R)-N-(4-(3-((5-cyanopyrimidin-2-yl)amino)pyrrolidine-1-carbonyl)phenyl)acrylamide]",inhibition at 1 µM,[1],5%
same,inhibition at 1 µM,[2],12%
same,inhibition at 1 µM,[3],12%
same,inhibition at 1 µM,[4],1%
same,inhibition at 1 µM,[5],-7%
same,inhibition at 1 µM,[6],7%
same,inhibition at 1 µM,[7],-15%
same,inhibition at 1 µM,[8],23%
same,inhibition at 1 µM,[9],1%
same,inhibition at 1 µM,[10],6%
same,inhibition at 1 µM,[11],-5%
same,inhibition at 1 µM,[12],15%
same,inhibition at 1 µM,[13],-3%
same,inhibition at 1 µM,[14],0%
same,inhibition at 1 µM,[15],0%
same,inhibition at 1 µM,[16],4%
same,inhibition at 1 µM,[17],3%
same,inhibition at 1 µM,[18],9%
same,inhibition at 1 µM,[19],3%
same,inhibition at 1 µM,[20],-6%
same,inhibition at 1 µM,[21],17%
same,inhibition at 1 µM,[22],-1%
same,inhibition at 1 µM,[23],9%
same,inhibition at 1 µM,[24],7%
same,inhibition at 1 µM,[25],11%
same,inhibition at 1 µM,[26],3%
same,inhibition at 1 µM,[27],7%
same,inhibition at 1 µM,[28],-5%
same,inhibition at 1 µM,[29],8%
same,inhibition at 1 µM,[30],-5%
same,inhibition at 1 µM,[31],6%
